For this experiment, the system named is MV-4-11 cells. In words: Gene expression microarray analysis (Affymetrix PrimeView) and GSEA. The class given is cell-based, human. Also noted: RFU PODN (11730768_x_at) / Fold change /veh PODN (11730768_x_at) / RFU LINC00158 (11744669_a_at) / Fold change /veh LINC00158 (11744669_a_at) / RFU DUSP10 (11751237_a_at) / Fold change /veh DUSP10 (11751237_a_at) / RFU ID3 (11757404_x_at) / Fold change /veh ID3 (11757404_x_at) / RFU PLEKHG5 (11737974_s_at) / Fold change /veh PLEKHG5 (11737974_s_at) / RFU LRRC4B (11730491_at) / Fold change /veh LRRC4B (11730491_at) / RFU GIMAP4 (11747438_a_at) / Fold change /veh GIMAP4 (11747438_a_at) / RFU KRT8 (11758183_x_at) / Fold change /veh KRT8 (11758183_x_at) / RFU CNN1 (11734310_a_at) / Fold change /veh CNN1 (11734310_a_at) / RFU VPS37D (11726825_at) / Fold change /veh VPS37D (11726825_at) / RFU C10orf10 (11716522_x_at) / Fold change /veh C10orf10 (11716522_x_at) / RFU KIR2DL2 /// KIR2DL4 /// KIR2DL5A /// KIR2DL5B /// KIR2DS1 /// KIR2DS2 /// KIR2DS3 /// KIR2DS4 /// KIR3DL3 /// KIR3DL3 /// KIR3DS1 (11738374_at) / Fold change /veh KIR2DL2 /// KIR2DL4 /// KIR2DL5A /// KIR2DL5B /// KIR2DS1 /// KIR2DS2 /// KIR2DS3 /// KIR2DS4 /// KIR3DL3 /// KIR3DL3 /// KIR3DS1 (11738374_at) / RFU C1QL1 (11718748_at) / Fold change /veh C1QL1 (11718748_at) / RFU TMPRSS4 (11747572_a_at) / Fold change /veh TMPRSS4 (11747572_a_at) / RFU HAMP (11756126_x_at) / Fold change /veh HAMP (11756126_x_at) / RFU RNFT2 (11725882_a_at) / Fold change /veh RNFT2 (11725882_a_at) / RFU NR4A2 (11747474_a_at) / Fold change /veh NR4A2 (11747474_a_at) / RFU ABCC12 (11746883_a_at) / Fold change /veh ABCC12 (11746883_a_at) / RFU TMEM136 (11760407_x_at) / Fold change /veh TMEM136 (11760407_x_at) / RFU CLDN22 /// WWC2 (11732394_at) / Fold change /veh CLDN22 /// WWC2 (11732394_at) / RFU HLA-DPB1 (11760878_x_at) / Fold change /veh HLA-DPB1 (11760878_x_at) / RFU SPINT1 (11716480_a_at) / Fold change /veh SPINT1 (11716480_a_at) / RFU GAP43 (11754022_s_at) / Fold change /veh GAP43 (11754022_s_at) / RFU A4GNT (11735810_at) / Fold change /veh A4GNT (11735810_at) / RFU PRB3 (11715151_x_at) / Fold change /veh PRB3 (11715151_x_at) / RFU TUBB4B (11761932_at) / Fold change /veh TUBB4B (11761932_at) / RFU CAPN14 (11732068_a_at) / Fold change /veh CAPN14 (11732068_a_at) / RFU TMCC2 (11721928_a_at) / Fold change /veh TMCC2 (11721928_a_at) / RFU IRGQ (11745062_a_at) / Fold change /veh IRGQ (11745062_a_at) / RFU FAM174B (11720279_a_at) / Fold change /veh FAM174B (11720279_a_at) / RFU TMPRSS4 (11748680_a_at) / Fold change /veh TMPRSS4 (11748680_a_at) / RFU FAM212B (11763350_a_at) / Fold change /veh FAM212B (11763350_a_at) / RFU PLEKHG5 (11743358_a_at) / Fold change /veh PLEKHG5 (11743358_a_at) / RFU ZSCAN30 (11745921_a_at) / Fold change /veh ZSCAN30 (11745921_a_at) / RFU CMKLR1 (11741424_a_at) / Fold change /veh CMKLR1 (11741424_a_at) / RFU LOC101060620 /// MAPK8IP1 (11723275_at) / Fold change /veh LOC101060620 /// MAPK8IP1 (11723275_at) / RFU SPTSSB (11747773_x_at) / Fold change /veh SPTSSB (11747773_x_at) / RFU PRSS12 (11739890_at) / Fold change /veh PRSS12 (11739890_at) / RFU BIN1 (11741810_x_at) / Fold change /veh BIN1 (11741810_x_at) / RFU WNT11 (11732464_a_at) / Fold change /veh WNT11 (11732464_a_at) / RFU C10orf10 (11716521_a_at) / Fold change /veh C10orf10 (11716521_a_at) / RFU C5orf56 (11738089_at) / Fold change /veh C5orf56 (11738089_at) / RFU CYB561 (11721691_x_at) / Fold change /veh CYB561 (11721691_x_at) / RFU ANKRD19P (11752326_a_at) / Fold change /veh ANKRD19P (11752326_a_at) / RFU OR2T12 /// OR2T33 /// OR2T8 (11738714_s_at) / Fold change /veh OR2T12 /// OR2T33 /// OR2T8 (11738714_s_at) / RFU VCAN (11748164_a_at) / Fold change /veh VCAN (11748164_a_at) / RFU JSRP1 (11732532_at) / Fold change /veh JSRP1 (11732532_at) / RFU KRTAP10-11 (11738290_x_at) / Fold change /veh KRTAP10-11 (11738290_x_at) / RFU MYO3A (11730013_a_at) / Fold change /veh MYO3A (11730013_a_at) / RFU EBF3 (11725865_a_at) / Fold change /veh EBF3 (11725865_a_at) / RFU CAMK2N1 (11719241_x_at) / Fold change /veh CAMK2N1 (11719241_x_at) / RFU C5orf56 (11738088_a_at) / Fold change /veh C5orf56 (11738088_a_at) / RFU OLFML3 (11715873_a_at) / Fold change /veh OLFML3 (11715873_a_at) / RFU LOC100653217 /// NTM (11731650_a_at) / Fold change /veh LOC100653217 /// NTM (11731650_a_at) / RFU MAPK11 (11762145_a_at) / Fold change /veh MAPK11 (11762145_a_at) / RFU FIZ1 (11724087_x_at) / Fold change /veh FIZ1 (11724087_x_at) / RFU OASL (11726364_x_at) / Fold change /veh OASL (11726364_x_at) / RFU SOX15 (11748057_x_at) / Fold change /veh SOX15 (11748057_x_at) / RFU CD79A (11719716_a_at) / Fold change /veh CD79A (11719716_a_at) / RFU HIST1H1D (11736915_at) / Fold change /veh HIST1H1D (11736915_at) / RFU CASKIN2 (11723855_a_at) / Fold change /veh CASKIN2 (11723855_a_at) / RFU LOC730098 (11760151_x_at) / Fold change /veh LOC730098 (11760151_x_at) / RFU OR4N2 (11742367_at) / Fold change /veh OR4N2 (11742367_at) / RFU PRRT2 (11749266_a_at) / Fold change /veh PRRT2 (11749266_a_at) / RFU SNX32 (11753110_a_at) / Fold change /veh SNX32 (11753110_a_at) / RFU CDHR5 (11726645_a_at) / Fold change /veh CDHR5 (11726645_a_at) / RFU RCAN1 (11760418_a_at) / Fold change /veh RCAN1 (11760418_a_at) / RFU FAM167A (11723789_a_at) / Fold change /veh FAM167A (11723789_a_at) / RFU FAM26E (11764081_at) / Fold change /veh FAM26E (11764081_at) / RFU ISYNA1 (11749810_s_at) / Fold change /veh ISYNA1 (11749810_s_at) / RFU ACY1 (11761880_at) / Fold change /veh ACY1 (11761880_at) / RFU 11764098_at / Fold change /veh 11764098_at / RFU SAMD14 (11745864_x_at) / Fold change /veh SAMD14 (11745864_x_at) / RFU NPB (11741838_a_at) / Fold change /veh NPB (11741838_a_at) / RFU TMPRSS6 (11731388_a_at) / Fold change /veh TMPRSS6 (11731388_a_at) / RFU KRTAP10-2 (11738614_at) / Fold change /veh KRTAP10-2 (11738614_at) / RFU ARHGAP8 /// PRR5-ARHGAP8 (11727945_x_at) / Fold change /veh ARHGAP8 /// PRR5-ARHGAP8 (11727945_x_at) / RFU KRTAP5-7 /// NADSYN1 (11734609_at) / Fold change /veh KRTAP5-7 /// NADSYN1 (11734609_at) / RFU RASL12 (11751679_a_at) / Fold change /veh RASL12 (11751679_a_at) / RFU CDKN2B (11736163_a_at) / Fold change /veh CDKN2B (11736163_a_at) / RFU PRF1 (11729649_at) / Fold change /veh PRF1 (11729649_at) / RFU, ZNF638 /// ZNF638-IT1 / Fold change vs veh, ZNF638 /// ZNF638-IT1 / RFU, PANK3 / Fold change vs veh, PANK3 / RFU, SH3YL1 / Fold change vs veh, SH3YL1 / RFU, ZEB2 / Fold change vs veh, ZEB2 / RFU, NRIP1 / Fold change vs veh, NRIP1 / RFU, PTTG1IP / Fold change vs veh, PTTG1IP / RFU, CAPN2 / Fold change vs veh, CAPN2 / RFU, MED14 / Fold change vs veh, MED14 / RFU, SNORA58 / Fold change vs veh, SNORA58 / RFU, C1orf63 / Fold change vs veh, C1orf63 / RFU, LRRFIP1 / Fold change vs veh, LRRFIP1 / RFU, NDUFAF7 / Fold change vs veh, NDUFAF7 / RFU, SLC12A2 / Fold change vs veh, SLC12A2 / RFU, IBTK / Fold change vs veh, IBTK / RFU, ESF1 / Fold change vs veh, ESF1 / Fold change vs veh, TMEM50B / RFU, TAOK1 / Fold change vs veh, TAOK1 / RFU, ACBD3 / Fold change vs veh, ACBD3 / RFU, TMA16 / Fold change vs veh, TMA16 / RFU, RWDD3 / Fold change vs veh, RWDD3 / RFU, BCAT1 / Fold change vs veh, BCAT1 / RFU, EDEM3 / Fold change vs veh, EDEM3 / RFU, TMEM33 / Fold change vs veh, TMEM33 / RFU, WDR75 / Fold change vs veh, WDR75 / RFU, AHCTF1 / Fold change vs veh, AHCTF1 / RFU, TFRC / Fold change vs veh, TFRC / RFU, ZDHHC17 / Fold change vs veh, ZDHHC17 / RFU, NOM1 / Fold change vs veh, NOM1 / RFU, ARL8B / Fold change vs veh, ARL8B / RFU, ZBTB11 / Fold change vs veh, ZBTB11 / RFU, TAMM41 / Fold change vs veh, TAMM41 / RFU, KIAA1704 /// LOC100996395 / Fold change vs veh, KIAA1704 /// LOC100996395 / RFU, ING1 / Fold change vs veh, ING1 / RFU, TRMT61B / Fold change vs veh, TRMT61B / RFU, FUBP3 / Fold change vs veh, FUBP3 / RFU, TP53 / Fold change vs veh, TP53 / RFU, TNKS2 / Fold change vs veh, TNKS2 / RFU, ZFP14 / Fold change vs veh, ZFP14 / RFU, ACTR2 / Fold change vs veh, ACTR2 / RFU, PPP3R1 / Fold change vs veh, PPP3R1 / RFU, PIK3R1 / Fold change vs veh, PIK3R1 / RFU, HNRNPA1 / Fold change vs veh, HNRNPA1 / RFU, RNF170 / Fold change vs veh, RNF170 / RFU, ZNF28 / Fold change vs veh, ZNF28 / RFU, RNGTT / Fold change vs veh, RNGTT / RFU, OGT / Fold change vs veh, OGT / RFU, BRD1 / Fold change vs veh, BRD1 / RFU, MARS / Fold change vs veh, MARS / RFU, ZNF655 / Fold change vs veh, ZNF655 / RFU, FAHD1 / Fold change vs veh, FAHD1 / RFU, BDP1 / Fold change vs veh, BDP1 / RFU, LRRCC1 / Fold change vs veh, LRRCC1 / RFU, ARID1A / Fold change vs veh, ARID1A / RFU, ZNF146 / Fold change vs veh, ZNF146 / RFU, ZNF330 / Fold change vs veh, ZNF330 / RFU, GPN3 / Fold change vs veh, GPN3 / RFU, C9orf123 / Fold change vs veh, C9orf123 / RFU, N4BP2L2 / Fold change vs veh, N4BP2L2 / RFU, ARFIP1 / Fold change vs veh, ARFIP1 / RFU, FAM179B / Fold change vs veh, FAM179B / RFU, BCL10 / Fold change vs veh, BCL10 / RFU, UHRF1BP1L / Fold change vs veh, UHRF1BP1L / RFU, BET1 / Fold change vs veh, BET1 / RFU, CNOT2 / Fold change vs veh, CNOT2 / RFU, ZNF268 / Fold change vs veh, ZNF268 / Fold change vs veh, ZNF507 / RFU, DGCR2 / Fold change vs veh, DGCR2 / RFU, WDSUB1 / Fold change vs veh, WDSUB1 / Fold change vs veh, HSP90B1 /// MIR3652 / RFU, ADSS / Fold change vs veh, ADSS / RFU, GK / Fold change vs veh, GK / RFU, ZNF148 / Fold change vs veh, ZNF148 / RFU, TAF9 / Fold change vs veh, TAF9 / RFU, SLC1A5 / Fold change vs veh, SLC1A5 / RFU, SLMO2 / Fold change vs veh, SLMO2 / RFU, ABCC4 / Fold change vs veh, ABCC4 / RFU, LOC101060439 /// RAP1B / Fold change vs veh, LOC101060439 /// RAP1B / RFU, RFX7 / Fold change vs veh, RFX7 / RFU, GTPBP10 / Fold change vs veh, GTPBP10 / RFU, CNEP1R1 / Fold change vs veh, CNEP1R1 / RFU, BIVM-ERCC5 /// ERCC5 / Fold change vs veh, BIVM-ERCC5 /// ERCC5 / RFU, ILF3 / Fold change vs veh, ILF3 / RFU 11762660_at / Fold change /veh 11762660_at / RFU VCAN (11757783_s_at) / Fold change /veh VCAN (11757783_s_at) / RFU DDX43 (11728927_at) / Fold change /veh DDX43 (11728927_at) / RFU KRT8 (11758188_x_at) / Fold change /veh KRT8 (11758188_x_at) / RFU NKD1 (11759106_at) / Fold change /veh NKD1 (11759106_at) / RFU SRD5A1 (11742802_a_at) / Fold change /veh SRD5A1 (11742802_a_at) / RFU TPSAB1 /// TPSB2 (11721975_s_at) / Fold change /veh TPSAB1 /// TPSB2 (11721975_s_at) / RFU GSTM3 (11746129_a_at) / Fold change /veh GSTM3 (11746129_a_at) / RFU IL23R (11737362_x_at) / Fold change /veh IL23R (11737362_x_at) / RFU TMEM51 (11727254_a_at) / Fold change /veh TMEM51 (11727254_a_at) / RFU PIWIL2 (11732686_x_at) / Fold change /veh PIWIL2 (11732686_x_at) / RFU ORM1 (11744905_x_at) / Fold change /veh ORM1 (11744905_x_at) / RFU CCDC152 (11743942_at) / Fold change /veh CCDC152 (11743942_at) / RFU ECM1 (11717891_a_at) / Fold change /veh ECM1 (11717891_a_at) / RFU IL23R (11748794_a_at) / Fold change /veh IL23R (11748794_a_at) / RFU TNFAIP8L3 (11732012_x_at) / Fold change /veh TNFAIP8L3 (11732012_x_at) / RFU MBOAT4 (11741988_at) / Fold change /veh MBOAT4 (11741988_at) / RFU 11764193_at / Fold change /veh 11764193_at / RFU TMEM53 (11763286_at) / Fold change /veh TMEM53 (11763286_at) / RFU MAGEB2 (11727129_at) / Fold change /veh MAGEB2 (11727129_at) / RFU TMEM200A (11744735_a_at) / Fold change /veh TMEM200A (11744735_a_at) / RFU CCDC152 (11751479_a_at) / Fold change /veh CCDC152 (11751479_a_at) / RFU FAM211A (11726209_a_at) / Fold change /veh FAM211A (11726209_a_at) / RFU RGS16 (11746705_a_at) / Fold change /veh RGS16 (11746705_a_at) / RFU VCAN (11755009_s_at) / Fold change /veh VCAN (11755009_s_at) / RFU RHOB (11743442_s_at) / Fold change /veh RHOB (11743442_s_at) / RFU RGS16 (11720943_a_at) / Fold change /veh RGS16 (11720943_a_at) / RFU RGS16 (11720944_at) / Fold change /veh RGS16 (11720944_at) / RFU, VPS4B / Fold change vs veh, VPS4B / RFU, CREB1 / Fold change vs veh, CREB1 / RFU, DNAJC13 / Fold change vs veh, DNAJC13 / RFU, GNAQ / Fold change vs veh, GNAQ / RFU, CDK5R1 / Fold change vs veh, CDK5R1 / RFU, ZRANB3 / Fold change vs veh, ZRANB3 / RFU, CUL4A / Fold change vs veh, CUL4A / RFU, CCNY / Fold change vs veh, CCNY / RFU, UFL1 / Fold change vs veh, UFL1 / RFU, COG3 / Fold change vs veh, COG3 / RFU, DIAPH2 / Fold change vs veh, DIAPH2 / RFU, SKA2 / Fold change vs veh, SKA2 / RFU, AFF3 / Fold change vs veh, AFF3 / RFU, LMF1 / Fold change vs veh, LMF1 / RFU, IPO11 / Fold change vs veh, IPO11 / RFU, DFFB / Fold change vs veh, DFFB / RFU, FOXP1 / Fold change vs veh, FOXP1 / RFU, CARD8 / Fold change vs veh, CARD8 / RFU, STRN3 / Fold change vs veh, STRN3 / RFU, ADK / Fold change vs veh, ADK / RFU, RASSF2 / Fold change vs veh, RASSF2 / RFU, WIPF1 / Fold change vs veh, WIPF1 / RFU, LARP1B / Fold change vs veh, LARP1B / RFU, RASA1 / Fold change vs veh, RASA1 / RFU, RB1 / Fold change vs veh, RB1 / RFU, PPFIA1 / Fold change vs veh, PPFIA1 / RFU, MAT2A / Fold change vs veh, MAT2A / RFU, CCT5 / Fold change vs veh, CCT5 / RFU, WDR92 / Fold change vs veh, WDR92 / RFU, CUX1 / Fold change vs veh, CUX1 / RFU, TTC7A / Fold change vs veh, TTC7A / RFU, TMEM135 / Fold change vs veh, TMEM135 / RFU, DEPTOR / Fold change vs veh, DEPTOR / RFU, CPM / Fold change vs veh, CPM / RFU, DNAJB6 / Fold change vs veh, DNAJB6 / RFU, CACNA2D3 / Fold change vs veh, CACNA2D3 / RFU, DTX4 / Fold change vs veh, DTX4 / RFU, TFCP2 / Fold change vs veh, TFCP2 / RFU, GMCL1 /// GMCL1P1 / Fold change vs veh, GMCL1 /// GMCL1P1 / RFU, AEBP2 / Fold change vs veh, AEBP2 / RFU, SNHG1 /// SNORD22 /// SNORD25 /// SNORD26 /// SNORD27 /// SNORD28 /// SNORD29 /// SNORD31 / Fold change vs veh, SNHG1 /// SNORD22 /// SNORD25 /// SNORD26 /// SNORD27 /// SNORD28 /// SNORD29 /// SNORD31 / Fold change (Aza/veh), C12orf56 (ProbeSet 11735607_a_at) / Fold change (ACY-1035/veh), C12orf56 (ProbeSet 11735607_a_at) / Fold change (Aza/veh), FGFR1OP (ProbeSet 11751329_s_at) / Fold change (ACY-1035/veh), FGFR1OP (ProbeSet 11751329_s_at) / Fold change (Aza/veh), VPS36 (ProbeSet 11739960_a_at) / Fold change (ACY-1035/veh), VPS36 (ProbeSet 11739960_a_at) / RFU SYPL1 (11715823_x_at) / Fold change /veh SYPL1 (11715823_x_at) / RFU IGFBP7 (11715501_s_at) / Fold change /veh IGFBP7 (11715501_s_at) / RFU REEP3 (11722064_at) / Fold change /veh REEP3 (11722064_at) / RFU IGLL1 (11728026_x_at) / Fold change /veh IGLL1 (11728026_x_at): dose or concentration left out as unconfirmed. Particulars: ProbeSet 11757113_a_at; LIST D.

These results are taken from paper PMC5218480 (PLoS ONE, 2017).

As to `Nc1ccc(-c2cccs2)cc1NC(=O)c1ccc2c(c1)cc(C1CC1)n2CCN1CCOCC1` [ACY-1035], the “RFU, SNHG1 /// SNORD22 /// SNORD25 /// SNORD26 /// SNORD27 /// SNORD28 /// SNORD29 /// SNORD31” value came to 319.01 RFU.
